# Patent US4737500A, “1-substituted-4-(thiazolyl-2-)-piperazines, -piperidines and -tetrahydropyridines useful as anxiolytic, psychogeriatric, antidepressant and antischizophrenic agents” (priority 1985, dated 1988)
# What was measured:
# [1] = reference antischizophrenics; Sayers and Kleinlogel 1974; cited from earlier work
# [2] = biological target: T1, 5HT-1A-binding sites in the pig cortex (Sus scrofa, UniProt A0A4X1UTF5); assay: 5HT-1A-binding affinity test, binding of 3H-8-hydroxy-2-(di-n-propylamino)-tetraline (3H-PAT)
# T1 construct: from tissue; host or cells: pig cortex
# T1 sequence (A0A4X1UTF5 1-422): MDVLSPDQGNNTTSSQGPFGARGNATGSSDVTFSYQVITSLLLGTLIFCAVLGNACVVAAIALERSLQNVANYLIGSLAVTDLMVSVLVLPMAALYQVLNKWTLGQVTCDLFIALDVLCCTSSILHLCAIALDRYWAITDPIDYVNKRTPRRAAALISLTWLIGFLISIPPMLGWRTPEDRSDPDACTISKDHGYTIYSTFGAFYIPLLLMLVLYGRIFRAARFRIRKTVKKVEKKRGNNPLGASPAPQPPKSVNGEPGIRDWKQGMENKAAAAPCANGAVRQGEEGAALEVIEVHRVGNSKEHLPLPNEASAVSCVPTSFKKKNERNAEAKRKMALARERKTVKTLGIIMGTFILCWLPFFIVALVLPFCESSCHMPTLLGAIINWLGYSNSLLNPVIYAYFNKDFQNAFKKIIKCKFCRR
# [3] = characteristic for antidepressants; H. Kleinlogel, page 83; cited from earlier work
# [4] = reference antidepressants, A. K. Dixon 1982; cited from earlier work
# [5] = aggression test: social interactions in male mice in aggression-evoking social encounters; assay type: in vivo, mouse; conditions: 0.3 mg/kg p.o. (acute administration)
# Protocol: The compounds of formula I promote social interactions after acute and chronic administration of 0.3 to 10 mg/kg p.o. in male mice in aggression-evoking social encounters [A. K. Dixon, Triangle 21 (1982) 95-105; M. Krsiak, Brit. J. Pharmacol. 55 (1975) 141-150]. […] M. Y. Spiegelstein, A. Levy, Elsevier, Amsterdam (1982) 39-55].
# [6] = 8h-sleep-EEG: sleep phases in the sleep/wake cycle in the rat; assay type: in vivo; conditions: 10 mg/kg p.o.; rat 8h-sleep-EEG
# Protocol: Further, the compounds of formula I modify the sleep phases in the sleep/wake cycle in the rat after administration of 3 to 30 mg/kg p.o. [H. Kleinlogel, EEG in Drug Research, Ed. H. Hermann, Gustav Fischer Verlag, Stuttgart, New York, 75-88 (1982)]. In the 8h-EEG, the slow wave phase (SWS) is increased, whereas the spindle phase and the paradoxical sleep phase (PS) are reduced. In Hjorth, parameters are the mean EEG amplitude (CA) and the complexity (CCF) increased.
# [7] = atypical dozing in the rat-8h-sleep-EEG; assay type: in vivo; conditions: 10 mg/kg p.o.
smiles,measurement,setting,value
O=C(CCCN1CCC(O)(c2ccc(Cl)cc2)CC1)c1ccc(F)cc1 [haloperidol],atypical dozing characteristic for antischizophrenics,[1],atypical dozing characteristic
CN1CCN(C2=Nc3cc(Cl)ccc3Nc3ccccc32)CC1 [clozapine],atypical dozing characteristic for antischizophrenics,[1],atypical dozing characteristic
O=C1CC2(CCCC2)CC(=O)N1CCCCN1CCN(c2ncccn2)CC1 [buspirone],IC50,[2],10 to 400 nM
CNCCCN1c2ccccc2CCc2ccccc21 [desipramine],decrease of paradoxical sleep phase,[3],decrease of paradoxical sleep phase
CN1Cc2c(N)cccc2C(c2ccccc2)C1 (stereo not drawn) [nomifensine],decrease of paradoxical sleep phase,[3],decrease of paradoxical sleep phase
CN(C)CCCN1c2ccccc2CCc2ccccc21 [imipramine],promotion of social behaviour,[4],promote social behaviour
same,decrease of paradoxical sleep phase,[3],decrease of paradoxical sleep phase
CN1CCN2c3ccccc3Cc3ccccc3C2C1 (stereo not drawn) [mianserine],decrease of paradoxical sleep phase,[3],decrease of paradoxical sleep phase
"COc1ccc(Cl)cc1C(=O)NCCN1CCN(c2nc(C(C)(C)C)cs2)CC1 [Example 8, 5-Chloro-2-methoxy-N-(2-(4-(4-(1,1-dimethylethyl)-2-thiazolyl)-1-piperazinyl)ethyl)-benzamide]",promotion of social interactions,[5],promotes social interactions
same,complexity (CCF),[6],increased
same,mean EEG amplitude (CA),[6],increased
same,paradoxial sleep phase (PS),[6],reduces
same,slow wave phase (SWS),[6],increases
same,spindle phase,[6],reduces
same,atypical dozing,[7],shows atypical dozing
same,IC50,[2],600 nM
CN(C)CCN1C(=O)c2ccccc2N(C)c2ccccc21 [dibenzepine],decrease of paradoxical sleep phase,[3],decrease of paradoxical sleep phase
CN(C)CCC=C1c2ccccc2CCc2ccccc21 [amitriptyline],promotion of social behaviour,[4],promote social behaviour
